Reference: patent publication US20020177120A1, “ASSAYS FOR APOTOSIS MODULATORS” (priority 1999, published 2002)
Entries after “also recorded” stand apart in the source; their conditions may differ. *1 amine or outer side, *2 acyl side, *3 side chain or, on linkers, in order; H or OH if unused. Where a SMILES comes first, the peptide text is derived from it. Bridges are numbered along the chain shown (N, C = ends). Roman numbers before positions name the chains, in order. [ ]: non-standard residue; d: D form. Actinocin(9to1) = Cc1c2oc3c(C)ccc(C(=O)[*:1])c3nc-2c(C(=O)[*:2])c(N)c1=O; NMeV = CN[C@H](C(=O)O)C(C)C; Sar = CNCC(=O)O

Experiments:
[1] = system: F9-1-13 cells; assay: Cell-based FRET reporter assay in F9-1-13 (SgAT) cells; design: species or system human
Description: Transfection of pcDNA3VH-SgAT and pcDNA3VH-SnAT into U-138 cells (using methods described above) resulted initially in few colonies and FRET signal was lost in many clones during expansion, however, from among the various subclones the F9-1-13 (pcDNA3VH-SgAT transfected; ATCC No. PTA-84) and F10-24-2 (pcDNA3-SnAT transfected) subclones were eventually expanded and shown to express stable FRET signals. As desired, the FRET signal expressed in F9-1-13 decreased in response to both staurosporin and anti-Fas antibody treatment of cells, while the FRET signal expressed by the F10-24-2 control cells, (i.e., lacking a caspase substrate domain), was unaffected following staurosporin or anti-Fas antibody treatment. […] F9-1-13 therefore appeared suitable for microtiter assays, and perhaps use in HTS assays for screening to identify and select modulators of apoptosis.
Studies were initiated to adapt the experimental cell-based FRET assay of EXAMPLE 5 to a format suitable for use in high-throughput screening. First, the assay was scaled down from a 24-well to a 96-well plate format. Cells from three different F9 parental cultures were plated in a black-sided 96-well plates (Costar #3904) at a density of 32,000 cells/well (˜1×10^5 cells/cm^2); allowed to adhere overnight; and then the media was replaced with either 100 μl fresh media containing inducer (5 μM staurosporin in 0.25% DMSO vehicle) or 100 μl containing only vehicle (0.25% DMSO). After an overnight incubation, fluorescence measurements were made to evaluate FRET signal changes. […] The assay therefore appeared to be adaptable to a 96-well format but it was not initially clear how signal might be improved to increase the signal-to-background ratio.
A 96-well FRET assay was evaluated for inter-assay well variability and inter-plate variability. Possible signal drift during measurement of the FRET fluorescence signal was evaluated using one of two different robotics-compatible rapid fluorescence plate readers (SpeedReader or Cytofluor II). After plating at an initial density of about 60,000 cells/well, and overnight culture F9-1-13 cells were treated with 5 μM staurosporin, or vehicle. After an overnight incubation in staurosporin (i.e., 16-24 hrs.), the plates were either washed, or not washed, and then assayed repeatedly over the next 1.5 hours using either of the plate readers. […] However, using the same assay conditions but with anti-Fas antibody as an inducer, different results were recorded. […] The basis for the observed differences in measuring devices is not clear, but may relate to the design of the light source and/or the sensitivity of the detection circuitry in the two different respective fluorescence readers as well as possible different means for optically or digitally subtracting background incident radiation.
Assay Confirmation: The following experiment was performed to validate the ability of the 96-well FRET assay to detect inhibitors of apoptosis: namely, F9-1-13 cells (n=5 wells) were treated with 50-100 μM Z-VAD-fmk (a broad spectrum caspase inhibitor) or vehicle (n=55) in randomized wells of a 96-well plate. All of these wells, and six additional positive control wells (i.e., lacking the inhibitor), were treated with 5 μM staurosporine in 0.25% DMSO vehicle. Six negative control wells were treated with vehicle only (0.25% DMSO). After overnight incubation, FRET signal changes were evaluated as described above.
Three alternatives to staurosporine induction were evaluated: serum withdrawal; c2-ceramide treatment; and induction via engagement of the CD95/Fas receptor with anti-Fas antibody. […] To increase the proportion of adherent cells, poly-D-lysine and 0.1% gelatin were evaluated in anti-Fas antibody treated F9-1-13 cells. […] Anti-Fas antibody was therefore chosen as a preferred inducer of apoptosis for high-throughput screening. […]

[2] = system: caspase-3; assay: Caspase-3 activity in F9-1-13 cells; format: cell-based, human; conditions: 75 μM, 16-24 hours
Experimental: Three alternatives to staurosporine induction were evaluated: serum withdrawal; c2-ceramide treatment; and induction via engagement of the CD95/Fas receptor with anti-Fas antibody. […] To increase the proportion of adherent cells, poly-D-lysine and 0.1% gelatin were evaluated in anti-Fas antibody treated F9-1-13 cells. […] Anti-Fas antibody was therefore chosen as a preferred inducer of apoptosis for high-throughput screening.
(§1) Caspase-3 Assay: Caspase-3 activity was assayed according to the following protocol. Cells plated and treated as above were washed in 1×PBS and lysed in 1×assay buffer (1 mM DTT, 1% Triton X-100, 0.5% Tween-20 in 1×PBS, pH 7.2). Lysates were combined with fluorogenic substrate, Ac-DEVD-AMC ([…]), ±inhibitor, Ac-DEVD-CHO (10 μM) (Bachem) in 1×assay buffer and incubated in the dark for 1 hr. at room temperature. Fluorescence readings were taken on the Cytofluor II plate reader (excitation 360 nm, emission 460 nm, 6 reads/well, gain 50).

[3] = system: IMR-32 cells; assay: Cell death / SYTO 13 cell survival in IMR-32 cells; format: cell-based; conditions: for programmed cell death as measured by Cell Death Detection: 4-8 hrs. treatment; for cells surviving (SYTO 13 assay): 50 μM etoposide
Experimental: (§2) Three CNS derived cell lines, IMR-32, NB41A3 and Neuro2A, were initially evaluated for growth and transfection characteristics, inducibility of apoptosis in a large percentage of cells, and a inducible apoptosis protease activity. […] The SYTO 13 cell survival assay and Cell Death Detection ELISA^PLUS (Materials and Methods) were used to optimize conditions for induction of apoptosis. IMR-32 cells were treated with Actinomycin D (ActD), cycloheximide (CHX), etoposide or staurosporin for 4-8 hrs.
SYTO13 Cell Viability Assays: Cells were seeded into 96-well plates, incubated overnight to adhere cells to the plastic, and then treated in quadruplicate for various times with extrinsically applied apoptosis-inducing agents, i.e., staurosporin or etoposide. Cell viability was determined using 5 μM SYTO 13 (Molecular Probes) and/or 5 μg/ml propidium iodide (PI, Molecular Probes). As controls, four wells of untreated cells were stained with SYTO 13 and PI, i.e., to measure the maximum signal (max), and four wells of untreated cells were stained with only PI, i.e., to measure the minimum signal (min). After 30 minutes of incubation at 37° C., fluorescence was assayed in plates using the Cytofluor II plate reader (Perseptive Biosystems) (excitation 485/20 nm; emission 530/30 nm; gain 50). Data was collected as relative fluorescence units (rfu) and averaged for six readings per well. Percent cell survival was calculated as 100×(rfutreatment−rfumin)/(rfumax−rfumin).
(§3) Etoposide-Induced Cell Death and Apoptotic DNA Fragmentation in IMR-32 Cells: Confluent IMR-32 cells were treated with 50 μM etoposide phosphate for 2, 8, 17 or 24 hrs. To evaluate apoptosis cells were either: i) stained with SYTO 13 and assayed for fluorescence using a Cytofluor II plate reader (excitation 485/20 nm, emission 530/30 nm), or ii) nucleosome-associated DNA fragments were detected using the Cell Death Detection ELISA^PLUS (Boehringer Mannheim) according to the manufacturer's instructions.

[4] = system: caspase-3; assay: Caspase-3 assay in IMR-32 cells; format: cell-based
Experimental: as §2, §1
Confluent IMR-32 cells were treated with 100 μM etoposide for 8 hrs. Cell lysates were collected and assayed for caspase-3 activity.

[5] = system: IMR-32 cells; assay: Microscopic examination of SYTO 13 / propidium iodide stained IMR-32 cells; format: cell-based; conditions: etoposide
Description: as §2, with “IMR-32 cells were treated with Actinomycin D (ActD), cycloheximide (CHX), etoposide or staurosporin for 4-8 hrs.” left out
Morphologic Markers of Apoptosis: Microscopic markers of apoptosis include membrane blebbing, cell shrinkage (i.e., cytoplasmic condensation) and condensed (dense) chromosomal nuclear materials (i.e., pyknosis).

[6] = system: caspase-3; assay: Caspase-3 assay in SAT-reporter-transformed HEK293 cells after apoptosis inducers; format: cell-based, human; conditions: 100-200 μM etoposide, 4, 5, 8 or 24 hrs.
[7] = system: IMR-32 cells; format: cell-based
Experimental: as §2
DNA Fragmentation ELISA: Apoptosis-induced inter-nucleosomal fragmentation of chromosomal DNA was quantified using the “Cell Death Detection ELISA^PLUS” (Boehringer Mannheim) according to the manufacturer's instructions. Briefly, ˜10^4 cells/well were plated on a poly-D-lysine-coated 96-well plate and treated for various periods of times with different apoptosis-inducing agents. The cells were lysed and the nuclei and membranes were pelleted. An aliquot of the cytoplasm-containing supernatant was then transferred to a streptavidin-coated microtiter plate and incubated with anti-histone-biotin and anti-DNA-peroxidase, resulting in the formation of “sandwich” antibody complexes, i.e., (anti-DNA-peroxidase)-(nucleosomal-DNA-containing-histone) -(anti-histone-biotin)-(streptavidin-microtiter plate). Unbound antibody was removed by washing. Peroxidase substrate (i.e., ABTS) was added and nucleosomal DNA complexes quantified by spectrophotometric analysis of the colored peroxidase reaction product.
as §3

[8] = system: F1-1-42 cells; assay: Staurosporin-induced apoptosis in F1-1-42 SAT FRET reporter cells (FRET signal, western blot, caspase-3, morphology); format: cell-based, human; conditions: 100 μM added 30 min prior to staurosporin
Experimental: Detecting Intracellular Changes in a FRET Reporter in Cells Undergoing Apoptosis: Having established that SAT reporter protein synthesized in HEK293 cells could be cleaved ex vivo, i.e., in cell lysates by trypsin (above), an initial in vivo intracellular assay was conducted using the selected F1-1-42 clonal cell line and staurosporin to induce apoptosis. […] In these experiments the F1-1-42 cells were plated at a density of 4×10^5 cells/0.5 ml in each well of a 24-well microtiter plate. After overnight incubation, apoptosis was induced by adding staurosporin to a final concentration of 5 μM, and using vehicle (0.25% DMSO) as a negative control. Assays for caspase-3 were used to confirm that apoptosis was induced. […] Subsequent testing determined that significant changes in FRET signal were first detectable at about 8 hours after addition of staurosporin and were maximal by 24 hrs post-induction.

[9] = 50 μM etoposide phosphate, 2, 8, 17 or 24 hrs.

Compound: CCCCCCCCCCCCC/C=C/[C@@H](O)[C@H](CO)NC(C)=O [c2-ceramide]
- FRET signal change ([1]; 75 μM, 16-24 hours): Only a small reduction in the FRET signal
- caspase-3 activity change [2]: Only a small reduction in the FRET signal and increase in caspase-3 activity

Compound: Cc1c2oc3c(C)ccc(C(=O)N[C@@H]4C(=O)N[C@H](C(C)C)C(=O)N5CCC[C@H]5C(=O)N(C)CC(=O)N(C)[C@@H](C(C)C)C(=O)O[C@@H]4C)c3nc-2c(C(=O)N[C@@H]2C(=O)N[C@H](C(C)C)C(=O)N3CCC[C@H]3C(=O)N(C)CC(=O)N(C)[C@@H](C(C)C)C(=O)O[C@@H]2C)c(N)c1=O [ActD, Actinomycin D] (I: T[dV]P[Sar][NMeV] / II: T[dV]P[Sar][NMeV]; ester I:1-I:C, II:1-II:C; linker I:N-II:N via Actinocin(9to1))
- programmed cell death as measured by Cell Death Detection [3]: about 30%

Compound: COc1cc([C@@H]2c3cc4c(cc3[C@@H](O[C@@H]3O[C@@H]5CO[C@@H](C)O[C@H]5[C@H](O)[C@H]3O)[C@H]3COC(=O)[C@H]23)OCO4)cc(OC)c1O [etoposide]
- increase in caspase-3 activity ([4]; confluent IMR-32, 100 μM etoposide, 8 hr.): ~5 fold
- induction of caspase-3-like activity ([4]; etoposide 50-100 μM): ~10 fold
- attached cells obviously dead ([5]; 8 hrs.): none were obviously dead
- attached cells with condensed nuclei and membrane blebbing ([5]; 8 hrs.): about 50%
- attached cells clearly dead ([5]; 24 hrs.): about 15%
- attached cells showing apoptotic morphology ([5]; 24 hrs.): about 75%
- cell survival by SYTO 13 staining in comparison with untreated controls [3, 9]: a decrease in cell survival over 24 hrs.
- cells surviving (SYTO 13 assay) ([3]; 8 hr): 55%
- cells surviving (SYTO 13 assay) ([3]; 24 hrs): 30%
- programmed cell death as measured by Cell Death Detection [3]: about 50%
- change in caspase-3 activity [6]: no change was observed; also recorded: showed no effect
- time at which DNA fragmentation reached a maximal value ([7]; 50 μM etoposide): 8 h
- measured apoptotic DNA fragmentation [7, 9]: an increase in measured apoptotic DNA fragmentation
- DNA fragmentation as determined by ELISA, dose dependence ([7]; 4-8 hrs. treatment): dose-dependent changes

Compound: COc1cccc2c1C(=O)c1c(O)c3c(c(O)c1C2=O)C[C@@](O)(C(=O)CO)C[C@@H]3O[C@H]1C[C@H](N)[C@H](O)[C@H](C)O1 [Doxorubicin]
- increase in caspase-3 activity ([4]; 5 μM): did not produce any increase in caspase-3 activity

Compound: Z-VAD-fmk
- mean FRET signal greater than in the staurosporine treatment group ([1]; 50-100 μM Z-VAD-fmk, 5 μM staurosporine, overnight, 96-well, P<0.001): ~65%

Compound: Z-DEVD-fmk
- effect on cleavage of SAT reporter in cell extracts (western blot) [8]: markedly less cleavage of SAT reporter
- effect on morphologic signs of apoptosis [8]: reduced morphologic signs of apoptosis
- effect on staurosporin-induced FRET signal change [8]: marked reduction in the FRET signal change

Compound: C[C@@H]1C[C@@H]([C@H](O)CC2CC(=O)NC(=O)C2)C(=O)[C@@H](C)C1 [CHX, cycloheximide]
- programmed cell death as measured by Cell Death Detection [3]: about 50%
